Patent publication US9458101B2 (priority 2009, dated 2016)
pIC50: −log10 of the molar value.

Key:
[1] = tested on: CCRF-CEM (Human T-lymphoblastoids from ALL); test: cells; type: cell-based; settings: 72 hours, precision +/−0.5 or better
From the text: (§1) A full factorial experimental design was used, for a total of 28 cases.
(§2) For each (cell line, compound) pair, the following conditions were used, with each condition being assigned to a lane on a microtiter plate: • a. Seven or eight concentration levels between 1×10^−10 M and 1×10^−3 M. • b. A control with cells and media only. • c. A control with cells, media and DMSO only. The DMSO was at a concentration approximately equal to that used in the highest drug concentration level.
(§3) Additionally, 6-8 replicates (wells) of each condition were done on the plate. Drug solutions were prepared by dissolving the solid compounds in DMSO and then diluting in water. An approximately equal number of cells were introduced into each well of the plate and cells were incubated for 72 hours. An MTS assay was performed and absorbance values were measured with a spectrophotometer. Finally, a log IC50 parameter was calculated by fitting a 4-parameter logistic model to the data using an implementation of the Levenberg-Marquardt algorithm.

[2] = tested on: NCI-H226 (Human lung squamous cell carcinoma); test: cells; type: cell-based; settings: NCI-H226, 72 hours, precision +/−0.5 or better
From the text: as §1, §2, §3

[3] = tested on: MCF-7 (Human mammary gland adenocarcinoma); test: cells; type: cell-based; settings: MCF7, MCF-7, 72 hours, precision +/−0.5 or better
From the text: as §1, §2, §3

[4] = tested on: A549 (Human lung adenocarcinoma); test: cells; type: cell-based; settings: A549, 72 hours, precision +/−0.5 or better
From the text: as §1, §2, §3

[5] = Dissolution of drug for cytotoxicity testing; type: physicochemical; parameters: key: X*: Did not dissolve at normal pH; settings: footnote of Table 3
Procedure: Drug solutions were prepared by dissolving it into 4.5% dimethylsulfoxide and diluting with distilled water to a final concentration of 1 mM. A series of dilutions were prepared and a wavelength scan of the diluted solution was used to determine the wavelength of maximum absorbance for each compound. Five standardized drug concentrations were scanned at this pre-determined wavelength to obtain an estimate of the compound's extinction coefficient.

Row | SMILES | pIC50 [1] | pIC50 [2] | pIC50 [3] | pIC50 [4] | dissolution at normal pH [5]
1 | COc1cc2c(c(OC)c1OC)-c1ccc(SC)c(=O)cc1[C@@H](NC(=O)CNC(=O)C(F)(F)F)CC2 [Compound 47a] | 8.20 | 7.30 | 3.90 | 7.20 | –
2 | COc1cc2c(c(OCc3ccccc3Cl)c1OC)-c1ccc(OC)c(=O)cc1[C@@H](NC(C)=O)CC2 [Compound 14, N-[(7S)-2,3,10-trimethoxy-9-oxo-1-((phenyl(2-chloro))methoxy)-5,6,7,9-tetrahydrobenzo[α]heptalen-7-yl]acetamide] | – | – | – | – | X*
3 | COc1cc2c(c(OC)c1OC)-c1ccc(OC)c(=O)cc1[C@@H](NC(=O)CNC(=O)C(F)(F)F)CC2 [Compound 28a] | 7.40 | 6.50 | – | 6.20 | –
